This experiment deals with Human sebocytes. In words: Neutral fat detection (Nile red staining, fluorescence intensity) in human sebocytes. It is filed as cell-based. As to the method: Human sebocytes (Cat. No. 36079-01, Celprogen, Torrance, Calif., USA) were cultured in Dulbecco's Modified Eagle Medium (DMEM): Nutrient Mixture F-12 (DMEM/F12) purchased from Thermo Fisher Scientific Limited (Barrington, Ill., USA), 10% fetal bovine serum (FBS) purchased from Gibco, Grand Island, N.Y., USA and penicillin/streptomycin (100 IU/50 […]), incubated at 37° C. in the 5% CO2 atmosphere.
Human sebocytes were implanted in 24- or 96-well plates. After 24 hours of culture, the cells were divided into a negative control group, a positive control group and an experimental group. […] The treated human sebocytes were cultured for two days. Human sebocytes were fixed with 4% formaldehyde at room temperature. After 60 minutes of fixation, the cells were washed with PBS and stain with Nile Red solution (1 μg/ml in PBS) at 37° C. for 15 minutes. Next, the cells were washed and observed under a fluorescent microscope. Fluorescence intensity was measured with fluorometer Spectra Max i3.

The mark [1] stands for this setting: 0.1 mM LA + 50 μg/mL peptide vs LA alone, FIG. 1E.

In the case of `CCCCC/C=C\C/C=C\CCCCCCCC(=O)O` [LA, linoleic acid, reference compound], the “lipid content compared with the negative control group” value (0.1 mM LA alone vs negative control, FIG. 1E) is “more than 3 times”. Besides, the “fluorescence intensity (lipid content of sebocytes, Nile red)” value (0.1 mM linoleic acid (LA) alone, positive control group, negative control about 1, FIG. 1E, cultured two days) is on record as “about 3.44”.
Turning to “Lf13: Lactoferrin-derived peptide purchased from DgPeptides; presumably the derived peptide comprising the amino acid sequence of SEQ ID NO: 01 (APRKNVRWCTISQ; Lactoferrin derived peptide)”, the “fluorescence intensity (lipid content of sebocytes, Nile red)” value is “about 1.29” (50 μg/mL peptide, negative control about 1.0, FIG. 2E); “about 1.44” (100 μg/mL peptide, negative control about 1.0, FIG. 2E); “about 4.67” (0.1 mM LA + 50 μg/mL lactoferrin peptide, negative control about 1, positive control (LA) about 3.44, FIG. 1E); “about 1.54” (400 μg/mL peptide (so in the source), negative control about 1.0, FIG. 2E). For the same compound, under setting [1], the “lipid content increase compared with the positive control group (LA)” value was determined as 40%. The “promoting and/or increasing the content of lipid synthesized by the induction of LA (significance vs positive control)” value under setting [1] was “significant difference”. The “concentration dependence of the lipid content increase” value (50, 100, 200 μg/mL peptide, FIG. 2) is given as “dose-dependent manner”.

The values above are taken from patent US20230002449A1, “DERIVED PEPTIDE OF LACTOFERRIN AND METHOD THEREOF FOR PROMOTING AND/OR INCREASING LIPID SYNTHESIS” (RENORIGIN INNOVATION INSTITUTE CO., LTD., priority 2021, published 2023).
